Common to all, as to type: cell-based, human
One data set concerns TRPA1-KO A549 cells. Put plainly: CCK-8 cell viability assay in TRPA1-KO A549 cells. To be noted: for IC50: Homo sapiens, TRPA1-KO A549 cells, 24 h treatment, CCK-8, read-out: IC50 values of AHs, TRPA1-KO A549 Cells; for viability of TRPA1-KO A549 cells compared with AHs-treated WT cells: KO of TRPA1, AHs 150, 300, 600 μM. How it is done: The hTRPA1 gene sequence (Gene ID: 8989) was obtained from the National Center for Biotechnology Information (NCBI) website (https://www.ncbi.nlm.nih.gov/gene/8989 accessed on 26 May 2022). Three gRNA sequences, namely, T1: 5′-[…]-[…], T16: 5′-[…]-3′, and T20: 5′-[…]-3′, were designed using the CRISPR online design tool (http://crispr.mit.edu/ accessed on 26 May 2022). Transfection of cells with gRNA-Cas9 was validated in test cells. Cell pool examination was performed using Sanger sequencing. Sequencing and tracer analysis were performed using the online tool TIDE (https://tide-calculator.nki.nl/ accessed on 26 May 2022) to investigate the cleavage efficiency of T1, T16, and T20. Cells from the cell pool were diluted in 96-well plates. Clones were observed under a microscope and wells containing single cell clones were labeled. Single cell clones were transferred to 24-well plates for expansion. Validation of knockout (KO) clones was performed via sequencing to confirm insertion and deletion on the genomes of KO clone candidates. Furthermore, mycoplasmas were detected for cloned cells with high KO using the Mycoplasma PCR Detection Kit.
(§1) Wild-type (WT) and TRPA1-KO A549 cells were cultured in McCoy’s 5A Media and F-12K Nutrient Mixture containing 10% fetal bovine serum, respectively. WT/TRPA1-KO A549 cells (5 × 10^4 cells/mL) were seeded in 96-well (100 μL/well) and 6-well (2 mL/well) plates and incubated at 37 °C with 5% CO2 in a humidified incubator for 24 h. WT/TRPA1-KO A549 cells were treated with AHs gradient concentrations (0, 150, 300, 600, 1200 μM) prepared in methanol (1.2 M) for 24 h. Additionally, WT/TRPA1-KO A549 cells were pre-treated with TRPA1 special inhibitor HC-030031 (100 μM) for 0.5 h and then treated with AHs gradient concentrations for 24 h.
(§2) To conduct the cell viability assay, the growth medium was removed from WT/TRPA1-KO A549 cells cultured in a 96-well plate. CCK-8 reagent was mixed with complete medium (1:9 volume ratio), and 100 µL of the CCK-8 reagent mixture was added to each well. The plate was incubated for 4 h and the absorbance was measured at 450 nm using a microplate reader (BNR05740; Molecular Devices, Sunnyvale, CA, USA). The average absorbance from each sextuplicate set of wells was calculated and the background control value was subtracted from each absorbance value. The percentage cell viability was determined using the following equation:cell viability (%) = [(As − Ab)/(Ac − Ab)] × 100% where As is the absorbance of the experimental well (containing medium, CCK-8 reagent, cells, and compound); Ac is the absorbance of the control well (containing medium, CCK-8 reagent, and cells); and Ab is the absorbance of the blank well (containing medium and CCK-8 reagent).

Another data set deals with TRPA1 mRNA in A549 cells. In words: RT-qPCR of TRPA1 mRNA. Particulars: for TRPA1 mRNA expression with HC-030031 pre-treatment compared with AHs treatment alone: HC-030031 50 μM, AHs 150, 300, 600 μM; for expression of TRPA1 mRNA compared with 0 μM AHs: significant at one or more of 150, 300, 600 μM. How it is done:
(§3) Wild-type (WT) and TRPA1-KO A549 cells were cultured in McCoy’s 5A Media and F-12K Nutrient Mixture containing 10% fetal bovine serum, respectively. WT/TRPA1-KO A549 cells (5 × 10^4 cells/mL) were seeded in 96-well (100 μL/well) and 6-well (2 mL/well) plates and incubated at 37 °C with 5% CO2 in a humidified incubator for 24 h. WT/TRPA1-KO A549 cells were treated with AHs gradient concentrations (0, 150, 300, 600, 1200 μM) prepared in methanol (1.2 M) for 24 h. […]
TRIzol Reagent (1 mL) was directly added to WT/TRPA1-KO A549 cells in 6-well plates and total RNA was extracted according to the manufacturer’s instructions. Total RNA was used for cDNA reverse transcription, which was performed according to the PrimeScript RT protocol with the following reaction conditions: 42 °C for 2 min, 4 °C for ∞ (removal of genomic DNA), 37 °C for 15 min, 85 °C for 5 s, and 4 °C for ∞ (reverse transcriptional reaction). RT-qPCR was performed according to the TB Green Premix Ex Taq II protocol. Primer sequences and product lengths were as follows: hTRPA1 (107 bp) forward primer 5′-[…]-3′, reverse primer 5′-[…]-3′; hβ-actin (184 bp) forward primer 5′-[…]-3′, reverse primer 5′-[…]-3′. RT-qPCR was performed using the CFX96 Real-Time System (Bio-Rad Laboratories, Hercules, CA, USA) using the following reaction conditions: 95 °C for 30 s, 40 cycles of 95 °C for 5 s, 60 °C for 30 s, and 72 °C for 30 s, followed by a melting curve from 65 to 95 °C in 0.5 °C/5 s increments. Calculations were performed using the CFX Manager^TM Version 1.0 software (Bio-Rad Laboratories Ltd., Hercules, CA, USA) and are represented as fold change in expression [2^ΔΔC(t)] on a linear scale.
(Real-time PCR tracks product formation cycle by cycle.)

Data set [1] concerns A549 cells. Put plainly: CCK-8 cell viability assay in WT A549 cells. To be noted: for viability of A549 cells compared with 0 μM AHs: 150, 300, 600, 1200 μM, 24 h; for viability of A549 cells compared with 0 μM AHs / IC50: CCK-8; for viability with HC-030031 pre-treatment compared with AHs treatment alone: A549 cells, HC-030031 50 μM, AHs 150, 300, 600 μM. How it is done: as §3, §2
(In general: Tetrazolium dyes change colour on reduction, which living cells bring about.)

Data set [2] relates to A549 cells. In words: LDH cytotoxicity assay. To be noted: 150, 300, 600, 1200 μM, 24 h. How it is done:
as §1
Using the Cytotoxicity LDH Assay Kit, lysis buffer (10 μL) was added to the high control well of a 96-well plate containing WT/TRPA1-KO A549 cells, which was then incubated for 0.5 h. Working solution was prepared by adding 5 mL assay buffer to the dye mixture vial, of which 100 μL was added to each well. The plate was protected from light and incubated at room temperature for 0.5 h. Subsequently, 50 μL stop solution was added to each well and the absorbance was measured immediately at 490 nm using a microplate reader (BNR05740, Molecular Devices). The average absorbance was calculated from each sextuplicate set of wells and the background control value was subtracted from each absorbance value. The percentage cytotoxicity was determined using the following equation:cytotoxicity (%) = [(Aa − Ab1)/(Ab2 − Ab1)] × 100% where Aa is the absorbance of the experimental well (containing medium, cells, and compound); Ab2 is the absorbance of the high control well (containing medium, cells, and lysis buffer); and Ab1 is the absorbance of the low control well (containing medium and cells).

Setting [3] is: Homo sapiens, WT A549 cells, 24 h treatment, read-out: IC50 values of AHs, A549 Cells.
The mark [4] stands for this setting: WT A549 cells pre-treated with HC-030031 50 μM, then AHs 24 h, read-out: IC50 values of AHs, A549 Cells + HC-030031 50 μM.

Broadly, the IC50 is the concentration that gives 50% inhibition.

Read-outs that look alike come from different tables or passages of the source.

Consider `CCCOCCN(C(=O)CCl)c1c(CC)cccc1CC` [Pretilachlor, pretilachlor], for which, in the data set on TRPA1-KO A549 cells, the IC50 was determined as 3.67 mM and the “viability of TRPA1-KO A549 cells compared with AHs-treated WT cells” value (shortened to “viability … compared with AHs-treated WT cells”) was “significantly increased the viability”. For the same molecule, in the data set with TRPA1 mRNA in A549 cells, the “TRPA1 mRNA expression with HC-030031 pre-treatment compared with AHs treatment alone” value is recorded as “albeit not significantly” and the “expression of TRPA1 mRNA compared with 0 μM AHs” value is “significantly increased”. Moreover, in the data set on A549 cells [1], the “viability of A549 cells compared with 0 μM AHs” value is “significantly decreased” and the “viability with HC-030031 pre-treatment compared with AHs treatment alone” value (from here on “viability … compared with AHs treatment alone”) is “significantly increased viability”. Further, in the data set with A549 cells [1] (setting [3]), the IC50 amounted to 2.33 mM. Besides, in the data set with A549 cells [1] (setting [4]), the 50% inhibitory concentration (IC50) is 4.46 mM. In addition, the “cell damage (LDH) compared with 0 μM AHs” value with A549 cells [2] was “significantly increased cell damage”.
Take `CCC(=O)Nc1ccc(Cl)c(Cl)c1` [Propanil, propanil]: in the data set on TRPA1-KO A549 cells, the half-inhibitory concentration (IC50) is 2.56 mM and the “viability … compared with AHs-treated WT cells” value was “significantly increased the viability”. In the data set with TRPA1 mRNA in A549 cells, the “TRPA1 mRNA expression with HC-030031 pre-treatment compared with AHs treatment alone” value is listed as “significantly reduced” and the “expression of TRPA1 mRNA compared with 0 μM AHs” value is given as “significantly increased”. Besides, in the data set with A549 cells [1], the “viability of A549 cells compared with 0 μM AHs” value is recorded as “significantly decreased” and the “viability … compared with AHs treatment alone” value is recorded as “significantly increased viability”. Further, the half-maximal inhibitory concentration (IC50) in the data set with A549 cells [1] (setting [3]) was 0.831 mM. Besides, the half-maximal inhibitory concentration (IC50) in the data set on A549 cells [1] (setting [4]) was 2.29 mM. Moreover, the “cell damage (LDH) compared with 0 μM AHs” value in the data set with A549 cells [2] is listed as “significantly increased cell damage”.
As to `CCc1cccc(C)c1N(C(=O)CCl)C(C)COC` (stereo not drawn) [Metolachlor, metolachlor], in the data set on TRPA1-KO A549 cells, the half-maximal inhibitory concentration (IC50) was found to be 0.562 mM and the “viability … compared with AHs-treated WT cells” value is recorded as “significantly increased the viability”. Further, in the data set on TRPA1 mRNA in A549 cells, the “TRPA1 mRNA expression with HC-030031 pre-treatment compared with AHs treatment alone” value was “significantly reduced” and the “expression of TRPA1 mRNA compared with 0 μM AHs” value was “significantly increased”. Further, in the data set on A549 cells [1], the “viability of A549 cells compared with 0 μM AHs” value is “significantly decreased” and the “viability … compared with AHs treatment alone” value is reported as “significantly increased viability”. In addition, the IC50 in the data set on A549 cells [1] (setting [3]) is 0.43 mM. Besides, in the data set with A549 cells [1] (setting [4]), the IC50 was 0.62 mM. Besides, the “cell damage (LDH) compared with 0 μM AHs” value with A549 cells [2] is reported as “significantly increased cell damage”.

The record behind these values is paper PMC9266004, “Potential Common Mechanisms of Cytotoxicity Induced by Amide Herbicides via TRPA1 Channel Activation” (International Journal of Environmental Research and Public …, 2022).
